Measured values as given in patent US20230278972A1, “SUBSTITUTED HALOALKYL SULFONANILIDE HERBICIDES” (FMC Corporation, priority 2020, published 2023).

Tests used:
Type in all cases: in vivo
kochia (Bassia scoparia) = assay: Test A1 postemergence, kochia; conditions: for Plant response rating, Kochia: Postemergence; for Kochia plant response rating: 31 g ai/ha, postemergence
Method in brief: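 Herbicidal response was scored on plants treated either preemergence, by directed spray onto soil of a loam–sand blend after sowing, or postemergence on potted plants at the one- to two-leaf stage, 2–10 cm high. Test chemicals were carried in a non-phytotoxic solvent mix with surfactant.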

[1] = tested on: goosegrass (Eleusine indica); assay: Test A1 preemergence, goosegrass
Method in brief: (§1)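 Test compounds were formulated in a non-phytotoxic solvent mixture containing a surfactant. For preemergence, seeds sown in a loam soil–sand blend received a directed soil spray. For postemergence, potted plants in the same soil, 2 to 10 cm tall at the one- to two-leaf stage, were sprayed.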

[2] = tested on: ragweed (common ragweed, Ambrosia artemisiifolia); assay: Test A1 postemergence, ragweed; conditions: for Plant response rating, Ragweed: Postemergence; for Ragweed plant response rating: 31 g ai/ha, postemergence
Method in brief: as §1

corn (Zea mays) = assay: Test A1 postemergence, corn; conditions: for Plant response rating, Corn: Postemergence; for Corn plant response rating: 31 g ai/ha, postemergence
Method in brief: as §1

[3] = 125 g ai/ha, 0 to 100 scale (0 no effect, 100 complete control), 10 days
[4] = 125 g ai/ha, 0 to 100 scale, 0 no effect, 100 complete control
[5] = 0 to 100 scale (0 no effect, 100 complete control)
[6] = 31 g ai/ha, 0 to 100 scale (0 no effect, 100 complete control)
[7] = 125 g ai/ha, 0 to 100 scale (0 no effect, 100 complete control)

Row | Compound | Plant response rating, Kochia (kochia (Bassia scoparia); [3]) | Plant response rating, Kochia (kochia (Bassia scoparia); 500 g ai/ha, 0 to 100 scale) | Plant response rating, Goosegrass [1, 4] | Plant response rating, Goosegrass ([1]; 500 g ai/ha, 0 to 100 scale (0 no effect, 100 complete control)) | Plant response rating, Ragweed [2, 3] | Plant response rating, Ragweed ([2]; 500 g ai/ha, 0 to 100 scale) | Plant response rating, Corn (corn (Zea mays); [3]) | Plant response rating, Corn (corn (Zea mays); 500 g ai/ha, 0 to 100 scale) | Kochia plant response rating (kochia (Bassia scoparia); [5]) | Plant response rating, Goosegrass [1, 6] | Ragweed plant response rating [2, 5] | Corn plant response rating (corn (Zea mays); [5]) | Plant response rating, Goosegrass [1, 7]
1 | Cc1cc(C)c(N(COC(=O)C(C)(C)C)S(=O)(=O)C(F)(F)F)cc1N1CCC2(CCC(F)(F)CC2)C1=O [Compound 397] | 90 | 90 | 100 | 100 | 80 | 80 | 10 | 10 |  |  |  |  | 
2 | COC1CCC2(CC1)CCN(c1cc(NS(=O)(=O)C(F)(F)F)c(C)cc1C)C2=O (stereo not shown) [Compound 398] | 70 |  | 100 |  | 80 |  | 60 |  | 20 | 100 | 20 | 30 | 
3 | Cc1cc(C)c(N(S(=O)(=O)C(F)(F)F)S(=O)(=O)C(F)(F)F)cc1N1CCC2(CCC(C(F)(F)F)CC2)C1=O (stereo not shown) [Compound 399] | 70 |  | 90 |  | 90 |  | 10 |  | 30 | 90 | 50 | 0 | 
4 | Cc1cc(C)c(N2CCC3(CCC(C(F)(F)F)CC3)C2=O)cc1NS(=O)(=O)C(F)(F)F (stereo not shown) [Compound 400] | 70 |  | 100 |  | 80 |  | 0 |  | 20 | 90 | 30 | 0 | 
5 | Cc1cc(C)c(N(COC(=O)C(C)(C)C)S(=O)(=O)C(F)(F)F)cc1N1CCC2(CCC(C)CC2)C1=O (stereo not shown) [Compound 401] | 30 |  | 30 |  | 90 |  | 60 |  | 10 | 0 | 60 | 10 | 
6 | Cc1cc(C)c(N2CCC3(CCC(C)CC3)C2=O)cc1NS(=O)(=O)C(F)(F)F (stereo not shown) [Compound 402] | 50 |  | 100 |  | 50 |  | 0 |  | 10 | 90 | 50 | 0 | 
7 | Cc1cc(C)c(N(COC(=O)C(C)(C)C)S(=O)(=O)C(F)(F)F)cc1N1CCC2(CCC(C(F)(F)F)CC2)C1=O (stereo not shown) [Compound 403] | 40 |  | 0 |  | 50 |  | 0 |  | 10 | 0 | 0 | 0 | 
8 | Cc1cc(C)c(N2Cc3cccc(C)c3C2=O)cc1NS(=O)(=O)Cl [Compound 408] | 60 |  |  |  | 90 |  | 80 |  | 60 | 100 | 40 | 80 | 100
9 | COc1cccc2c1C(=O)N(c1cc(N(COC(=O)C(C)(C)C)S(=O)(=O)Cl)c(C)cc1C)C2 [Compound 413] | 80 |  |  |  | 90 |  | 30 |  | 20 | 50 | 60 | 30 | 80
10 | CCOc1cccc2c1C(=O)N(c1cc(N(COC(=O)C(C)(C)C)S(=O)(=O)Cl)c(C)cc1C)C2 [Compound 414] | 50 |  |  |  | 70 |  | 0 |  | 1 | 0 | 40 | 0 | 0
11 | Cc1cc(C)c(N2Cc3cccc(Br)c3C2=O)cc1NS(=O)(=O)Cl [Compound 415] | 70 |  |  |  | 70 |  | 50 |  | 40 | 90 | 30 | 0 | 100
